Where a name gives a salt, the structure may show the parent alone.
How the values were obtained:
[1] = cited from earlier work
[2] = Saturation concentration of bupivacaine hydrochloride in de-ionized water; type: physicochemical; conditions: DI water
Description: Bupivacaine hydrochloride (Sigma-Aldrich Corporation, St. Louis, Mo.) was dissolved in de-ionized (DI) water at a concentration of 40 mg/ml (saturation). A calculated amount of sodium hydroxide (1 N solution) was added to the solution and the pH of the final mixtures was adjusted to 10 to precipitate the BP base. The precipitated product was filtered, and further washed with DI water for at least three times. The precipitated product was dried at approximately 40° C. in vacuum for 24 hours.

CC(=O)OCC(COC(C)=O)OC(C)=O [triacetin]
reported solubility in water [1]: 7.17 grams in 100 ml of water

CCCCN1CCCCC1C(=O)Nc1c(C)cccc1C (centres unmarked) [Bupivacaine hydrochloride]
concentration in de-ionized water (saturation) [2]: 40000 µg/mL
